# From EP1137645B1, “ALPHA-METHYLBENZYL-CONTAINING THIOUREA INHIBITORS OF HERPES VIRUSES CONTAINING A […] GROUP” (Wyeth, priority 1998, dated 2000)
# Like-named read-outs stand apart in the source and are kept apart here.
# What was measured:
# [1] = test system: HCMV recombinant mutant virus whose genome contains the prokaryotic beta-glucuronidase gene; experiment: microbe, parasite or virus in culture; type: cell-based, human cytomegalovirus; conditions: for IC50: Human betaherpesvirus 5, Fibroblast
# Procedure, shortened: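 Antiviral IC50 estimated from reduced reporter activity across compound amounts: lysates prepared 96 h after infection were tested with p-nitrophenyl- or methylumbelliferyl-glucuronide. Cells were human foreskin fibroblasts, infected alongside inhibitor with HCMV (e.g. RV145) expressing viral promoter-driven beta-glucuronidase.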
# [2] = test system: VZV strain Ellen; experiment: VZV antiviral (ELISA) assay; type: cell-based; conditions: for inhibition at 10 µg/mL: read-out: % inhibition 10 ug/ml VZV
# Procedure, shortened: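 HFF cells infected with VZV Ellen at multiplicity below 0.1 overnight, then mixed infected/uninfected cells seeded with compound in DMEM/2% FBS and incubated three days at 37°C, 5% CO2.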
# [3] = test system: HSV- I; experiment: HSV antiviral (ELISA) assay; type: cell-based; conditions: read-out: IC50 (ug/ml) HSV
# Procedure, shortened: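 IC50 from fluorescence versus untreated control in a cell ELISA: anti-glycoprotein D antibody, β-galactosidase-conjugated secondary, 4-methyl umbelliferone read at 365/450 nm. Vero cells (2% FBS DMEM) received compound 30 min pre-infection with HSV-1 at MOI 0.006, fixed ~24 h post-infection.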
# [4] = read-out: IC50 ug/ml HCMV, HCMV, human foreskin fibroblasts
# [5] = Human alphaherpesvirus 3, HFF, read-out: IC50 (ug/ml) VZV
# [6] = Human alphaherpesvirus 3, HFF, read-out: IC50 (ug/ml) VZV, VZV strain Ellen, HFF cells, ELISA
# [7] = Human alphaherpesvirus 3, VZV strain Ellen, HFF cells, ELISA, read-out: IC50 (ug/ml) VZV
SMILES,"IC50 [1, 4]","inhibition at 10 µg/mL ([2]; Human alphaherpesvirus 3, HFF)","IC50 [2, 5]","IC50 ([3]; HSV- I, Vero cells, ELISA)","IC50 [2, 6]",IC50 ([3]; Vero),IC50 ([1]; read-out: IC50 ug/ml HCMV),"IC50 [2, 7]","IC50 ug/ml HCMV ([1]; HCMV, human foreskin fibroblasts)"
"COc1c(Cl)cc(NC(=S)Nc2ccc(NC(=O)c3ccc(F)cc3)cc2)cc1Cl [Example 133, N-{4-[3-(3,5-Dichloro-4-methoxy-phenyl)-thioureido]-phenyl}-4-fluoro-benzamide]",0.6 µg/mL,36%,> 10 µg/mL,7 µg/mL,,,,,
"COc1ccc(NC(=S)Nc2ccc(NC(=O)c3ccc(F)cc3)cc2)cc1Cl [Example 823, N-{4-[3-(3-Chloro-4-methoxy-phenyl)-thioureido]-phenyl}-4-fluoro-benzamide]",6 µg/mL,7%,> 10 µg/mL,6 µg/mL,,,,,
"COc1ccccc1C(=O)Nc1ccc(NC(=S)NC(C)c2ccc(C#N)cc2)cc1 (stereo not shown) [Example 1017, N-(4-{3-[1-(4-Cyano-phenyl}-ethyl]-thioureido}-phenyl)-2-methoxy-benzamide]",> 10 µg/mL,,,,0.3 µg/mL,> 10 µg/mL,,,
"COc1ccc(C(=O)Nc2ccc(NC(=S)Nc3cc(Cl)c(OC)cc3OC)cc2)cc1 [Example 121, N-{4-[3-(5-Chloro-2,4-dimethoxy-phenyl)-thioureido]-phenyl}-4-methoxy-benzamide]",6 µg/mL,0%,> 10 µg/mL,0.3 µg/mL,,,,,
"COc1cc(OC)c(NC(=S)Nc2ccc(NC(=O)c3ccccc3C)cc2)cc1Cl [Example 114, N-{4-[3-(5-Chloro-2,4-dimethoxy-phenyl)-thioureido]-phenyl}-2-methyl-benzamide]",5 µg/mL,17%,> 10 µg/mL,0.3 µg/mL,,,,,
"COc1cc(OC)c(NC(=S)Nc2ccc(NC(=O)c3cccc(NS(C)(=O)=O)c3)cc2)cc1Cl [Example 137, N-{4-[3-(5-Chloro-2,4-dimethoxy-phenyl)-thioureido]-phenyl}-3-methane-sulfony-amino-benzamide]",10 µg/mL,72%,,,> 15 µg/mL,10 µg/mL,,,
"COc1cc(OC)c(NC(=S)Nc2ccc(NC(=O)c3ccc(F)c(F)c3F)cc2)cc1Cl [Example 192, N-{4-[3-(5-Chloro-2,4-dimethoxy-phenyl)-thioureido]-phenyl}-2,3,4-trifluoro-benzamide]",> 10 µg/mL,14%,> 10 µg/mL,0.5 µg/mL,,,,,
"CC(O)c1ccc(NC(=S)Nc2ccc(NC(=O)c3ccccc3F)cc2)cc1Cl (stereo not shown) [Example 865, N-(4-{3-[3-Chloro-4-(1-hydroxy-ethyl)-phenyl]-thioureido}-phenyl)-2-fluoro-benzamide]",0.3 µg/mL,52%,> 10 µg/mL,4 µg/mL,,,,,
"CC(=O)Nc1ccc(NC(=S)Nc2ccc(NC(=O)c3ccccc3F)cc2)cc1Cl [Example 397, N-{4-[3-(4-Acetylamino-3-chloro-phenyl)-thioureido]-phenyl}-2-fluoro-benzamide]",10 µg/mL,35%,> 10 µg/mL,5 µg/mL,,,,,
"O=C(Nc1ccc(NC(=S)Nc2ccc(OC(F)(F)F)c(Br)c2)cc1)c1ccccc1F [Example 549, N-{4-[3-(3-Bromo-4-trifluoromethoxy-phenyl)-thioureido]-phenyl}-2-fluoro-benzamide]",> 10 µg/mL,,,,> 10 µg/mL,> 10 µg/mL,,,
"CN(C)c1cc(CNC(=S)Nc2ccc(NC(=O)c3ccccc3F)cc2)cc(C(F)(F)F)c1 [Example 636, N-{4-[3-(3-Dimethylamino-5-trifluoromethyl-benzyl)-thioureido]-phenyl}-2-fluoro-benzamide]",> 10 µg/mL,,,,5 µg/mL,> 10 µg/mL,,,
"CC(NC(=S)Nc1ccc(NC(=O)c2ccccc2F)cc1)c1ccccc1Cl (stereo not shown) [Example 784, N-(4-{3-[1-(2-Chloro-phenyl)-ethyl]-thioureido}-phenyl)-2-fluoro-benzamide]",1.1 µg/mL,,,,0.7 µg/mL,> 10 µg/mL,,,
"COc1cc(OC)c(NC(=S)Nc2ccc(NC(=O)c3cccc(OCC(=O)O)c3)cc2)cc1Cl [Example 222, (3-{4-[3-(5-Chloro-2,4-dimethoxy-phenyl)-thioureido]-phenylcarbamoyl}-phenoxy)-acetic acid]",> 50 µg/mL,17%,> 10 µg/mL,> 50 µg/mL,,,,,
"COc1ccc(NC(=S)Nc2ccc(NC(=O)c3ccccc3F)cc2)cc1F [Example 995, 2-Fluoro-N-{4-[3-(3-fluoro-4-methoxy-phenyl)-thioureido]-phenyl}-benzamide]",,,,> 10 µg/mL,,,> 10 µg/mL,> 10 µg/mL,
"CCOC(=O)Nc1ccc(NC(=S)Nc2ccc(NC(=O)c3ccccc3F)cc2)cc1Cl [Example 399, (2-Chloro-4-{3-[4-(2-fluoro-benzoylamino)-phenyl]-thioureido}-phenyl)-carbamic acid ethyl ester]",1.5 µg/mL,59%,,,> 10 µg/mL,> 10 µg/mL,,,
"COc1cccc(C(=O)Nc2ccc(NC(=S)Nc3cc(Cl)c(OC)cc3OC)cc2)c1 [Example 120, N-{4-[3-(5-Chloro-2,4-dimethoxy-phenyl)-thioureido]-phenyl}-3-methoxy-benzamide]",5 µg/mL,25%,> 10 µg/mL,0.8 µg/mL,,,,,
"COc1c(Cl)cc(NC(=S)Nc2ccc(NC(=O)c3cccc(F)c3)cc2)cc1Cl [Example 872, N-{4-[3-(3,5-Dichloro-4-methoxy-phenyl)-thioureido]-phenyl}-3-fluoro-benzamide]",0.6 µg/mL,28%,> 10 µg/mL,4 µg/mL,,,,,
"COc1cc(OCC(F)(F)F)ccc1NC(=S)Nc1ccc(NC(=O)c2ccccc2F)cc1 [Example 1006, 2-Fluoro-N-(4-{3-[2-methoxy-4-(2,2,2-trifluoro-ethoxy)-phenyl]-thioureido}-phenyl)-benzamide]",,,,8.3 µg/mL,,,8.9 µg/mL,11 µg/mL,
"COc1cc(OC)c(NC(=S)Nc2ccc(NC(=O)c3c(F)cccc3F)cc2)cc1Cl [Example 140, N-{4-[3-(5-Chloro-2,4-dimethoxy-phenyl)-thioureido]-phenyl}-2,6-difluoro-benzamide]",4 µg/mL,65%,10 µg/mL,0.15 µg/mL,,,,,
"COc1cc(C)c(Cl)cc1NC(=S)Nc1ccc(NC(=O)c2ccccc2C)cc1 [Example 850, N-{4-[3-(5-Chloro-2-methoxy-4-methyl-phenyl)-thioureido]-phenyl}-2-methyl-benzamide]",2 µg/mL,28%,5 µg/mL,0.09 µg/mL,,,,,
"CC(N=[N+]=[N-])c1ccc(NC(=S)Nc2ccc(NC(=O)c3ccccc3F)cc2)cc1Cl (stereo not shown) [Example 492, N-(4-{3-[4-(1-Azido-ethyl)-3-chloro-phenyl]-thioureido}-phenyl)-2-fluoro-benzamide]",2 µg/mL,32%,> 10 µg/mL,> 10 µg/mL,,,,,
"Cc1ccc([C@@H](C)NC(=S)Nc2ccc(NC(=O)c3ccccc3F)cc2)cc1 [Example 1012, 2-Fluoro-N-{4-[3-((1R)-1-p-tolyl-ethyl)-thioureido]-phenyl}-benzamide]",7.1 µg/mL,,,,> 7.5 µg/mL,> 10 µg/mL,,,
"Cc1ccc(NC(=S)Nc2ccc(NC(=O)c3ccccc3C)cc2)cc1Cl [Example 234, N-{4-[3-(3-Chloro-4-methyl-phenyl)-thioureido]-phenyl}-2-methyl-benzamide]",1 µg/mL,68%,> 10 µg/mL,0.2 µg/mL,,,,,
"COc1ccc(NC(=S)Nc2ccc(NC(=O)c3cccc(F)c3)cc2)cc1Cl [Example 822, N-{4-[3-(3-Chloro-4-methoxy-phenyl)-thioureido]-phenyl}-3-fluoro-benzamide]",3 µg/mL,0%,> 10 µg/mL,3 µg/mL,,,,,
"CC(NC(=S)Nc1ccc(NC(=O)c2nccc3ccccc23)cc1)c1ccc(F)cc1 (stereo not shown) [Example 976, Isoquinoline-1-carboxylic acid (4-{3-[1-(4-fluoro-phenyl)-ethyl]-thioureido}-phenyl)-amide]",,,,,0.04 µg/mL,> 10 µg/mL,,,>10 µg/mL
"CC(NC(=S)Nc1ccc(NC(=O)c2ccccc2Cl)cc1)c1ccc(F)cc1 (stereo not shown) [Example 755, 2-Chloro-N-(4-{3-[1-(4-fluoro-phenyl)-ethyl]-thioureido}-phenyl)-benzamide]",> 10 µg/mL,,,,7 µg/mL,> 10 µg/mL,,,
"COc1c(Cl)cc(NC(=S)Nc2ccc(NC(=O)c3ccccc3F)cc2)cc1Cl [Example 874, N-{4-[3-(3,5-Dichloro-4-methoxy-phenyl)-thioureido]-phenyl}-2-fluoro-benzamide]",0.2 µg/mL,75%,3.5 µg/mL,5 µg/mL,,,,,
"COc1cccc(C(=O)Nc2ccc(NC(=S)Nc3ccc(N(C)C4CCCCC4)c(Cl)c3)cc2)c1 [Example 250, N-(4-{3-[3-Chloro-4-(cyclohexyl-methyl-amino)-phenyl]-thioureido}-phenyl)-3-methoxy-benzamide]",> 10 µg/mL,42%,> 10 µg/mL,> 10 µg/mL,,,,,
